Non-standard residues stand in square brackets, D forms with d. No end group written: not given here. DAP = diaminopimelic acid

Data on 1 substance can be found in patent US20090028795A1, “NOD1 as an Anti-Tumor Agent” (priority 2005, published 2009).

Common to all, as to assay type: cell-based, human
For assay [1], the system named is MCF-7 C20 cells. The experiment in a line: Propidium iodide exclusion cell death assay, Nod1-deficient MCF-7 C20 cells. To be noted: MCF-7C20 (without Nod1 expression), γTriDAP plus cycloheximide. The procedure: (§1) Cell viability assays. Propidium iodide exclusion assay: Cells were stimulated as indicated for 2 days. Subsequently, cells were harvested, washed twice in FACS buffer (PBS containing 1% FCS and 0.1% NaN3) and resuspended in propidium iodide (PI)-containing FACS buffer (4 ug/ml). The extent of cell death was analyzed with a FACSCalibur flow cytometer (Becton Dickinson, Mountain View, Calif.). DAPI staining: MCF-7 cells were plated in chamber slides, and stimulated for 2 days. Cells were washed with PBS and apoptotic nuclei were stained with 1 μg/ml DAPI (Sigma Chemical Co., St. Louis, Mo.). Cells were fixed in 4% paraformaldehyde and examined by fluorescence microscopy.
To further investigate the role of Nod1 in apoptosis, a variety of cell types were incubated with the Nod1 ligand, […] (γTriDAP), which specifically activates Nod1. The cell types tested included the parental MCF-7 cell line, the Nod1-deficient MCF-7C20 clone, and a cell line engineered to contain an additional human Nod1 allele (MCF-7Nod1) so that Nod1 was over-expressed. […] Cells were treated with γTriDAP in the presence or absence of cycloheximide (CHX) and cell death was then determined by propidium iodide staining and flow cytometry.

Assay [2] relates to poly(ADP-ribose)polymerase (PARP) and capases 6, 7, 8 and 9. The experiment in a line: Western blot of PARP and caspase cleavage in MCF-7 cells. To be noted: CHX 0.5 ug/ml, 24 h. The method, then:
Cleavage of PARP and various caspases was detected by Western blot analysis of cell MCF-7 Blasto, MCF-7 C20 and MCF-7 Nod1 after stimulation with γTriDAP, αTriDAP or medium (control) in the presence or absence of CHX (0.5 ug/ml) for 24 h. Cells were harvested, subjected to western blotting and PARP, caspases, p20, p41/43 and p35 were detected with antibodies reactive thereof.
Western blot analysis and immunoprecipitation. Cells were washed extensively and lysed using lysis buffer containing 50 mM Hepes, 100 mM NaCl, 2 mM EDTA, 10% glycerol, 1% Nonidet P-40, 14 μM pepstatin A, 100 uM leupeptin, 3 mM benzamidine, 1 mM PMSF, 1 mM sodium pyrophosphate, 10 mM sodium orthovanadate, 100 U/ml aprotinin, and 100 mM sodium fluoride. After incubation for 30 min on ice, cell lysates were centrifuged (14000 rpm, 10 min, 4° C.) and the supernatants were recovered. For immunoprecipitation, cell lysates were mixed with 5 μg of antibody for 3 hour at 4° C. under constant agitation. Immune complexes were allowed to bind to 20 μl protein A-Sepharose beads overnight, beads were washed three times with lysis buffer. Immunoprecipitates were separated on SDS-PAGE and transferred to PVDF membranes.
(In general: A western blot detects proteins with antibodies after separation by electrophoresis.)

For assay [3], the system named is MCF-7 C20 cells with Nod2. As to the kind of experiment: Apoptosis in MCF-7 C20 cells complemented with Nod2. To be noted: MCF-7 C20 complemented with Nod2 (data not shown).
Assay [4] deals with MCF-7 cells. The experiment in a line: Apoptosis in the presence of TNFα (FIG. 8C). To be noted: with TNFα. The method, then: FIG. 8A-D illustrate that a synergistic relationship exists between NOD1 and TNFα. FIG. 8A graphically illustrates that the percentage of apoptotic cells increases in dose-specific manner as the concentration of NOD1 increases from 0.0 to 100 μg/ml and the concentration of TNFα increases from 0.5 ng/ml to 1 ng/ml. FIG. 8B graphically illustrates that the percentage of apoptotic cells increases in dose-specific manner as the concentration of cycloheximide increases from 0.0 to 3 μg/ml and the concentration of TNFα increases from 0.5 ng/ml to 1 ng/ml. […] FIG. 8D illustrates NOD1 expression at various time points after exposure of MCF-7 cells to TNFα.

The test system of assay [5] is SK-BR3. As to the kind of experiment: Apoptosis (PI staining), SK-BR3 cells. The procedure: as §1
(§2) To determine if Nod1-dependent apoptosis occurs in other human cell lines, a series of epithelial cell lines were examined where Nod1 was stably expressed to enhance sensitivity to activation of the Nod1 pathway. Cells were treated with TNFα (T) and γTriDAP (γ) in the presence or absence of CHX (C) and monitored for viability by PI staining as a measure of apoptosis (Table 1).

Assay [6] concerns HT29. As to the kind of experiment: Apoptosis (PI staining), HT29 cells stably expressing Nod1. To be noted: HT29, Nod1 stably expressed; treatment as labelled. The procedure:
as §1, §2

The test system of assay [7] is CaCo2. As to the kind of experiment: Apoptosis (PI staining), CaCo2 cells stably expressing Nod1. To be noted: CaCo2, Nod1 stably expressed; treatment as labelled. The method, then: as §1, §2
Assay [8] deals with HT29. As to the kind of experiment: IL-8 production, HT29 cells stably expressing Nod1. To be noted: HT29, Nod1 stably expressed; treatment as labelled.
Assay [9] has as its system CaCo2. As to the kind of experiment: IL-8 production, CaCo2 cells stably expressing Nod1. To be noted: CaCo2, Nod1 stably expressed; treatment as labelled.

Take “D-Ala-L-Glu-Diaminopimelic acid ([dA]-Glu-[DAP]; also: Glu joined to DAP through its gamma carboxyl (γTriDAP))”: the apoptosis result in assay [1] was “totally resistant”; in assay [3] it was “did not result in apoptosis”; in assay [5] (SK-BR3, Nod1 stably expressed, treatment as labelled), “only undergo apoptosis when γTriDAP was added together with TNFα and CHX”; in [6], “poorly responsive”; in assay [7], “poorly responsive”. In addition, the “proteolytic cleavage of PARP and capases 6, 7, 8 and 9” value in [2] is given as “resulted in proteolytic cleavage”. In addition, the “apoptosis in the presence of TNFα” value in assay [4] was “increases apoptosis”. Also, in assay [5] (plus TNFα and cycloheximide (FIG. 9B)), the “apoptosis of SKBR3 cells” value is listed as “highest”. For the same substance, the “IL−8 Production” value in assay [8] and in [9] was “poorly responsive” each time.
